Assay results reported in patent publication US20060193931A1, “Nutritional or therapeutic composition containing the compound oleuropeine or one of the derivatives thereof” (priority 2003, published 2006).

Tests used:
Type in all cases: in vivo, rat (Wistar)
[1] = tested on: ovariectomized female rats, suffering from inflammation (OVX inf); assay: Inflammation markers (plasma orosomucoid, spleen weight) in ovariectomized female rats with talc-induced inflammation; conditions: OVX inf female Wistar rats; diet for 72 days; sacrifice D80; mean ± SEM
Experimental: (§1) The experiment was conducted on 40 female rats Wistar aged 6 months, amongst which thirty were ovariectomized (OVX) and 10 pseudo-operated (SH). Animals were placed in metabolic cages enabling to separately collect the urines at a controlled temperature of 21±1° C., according to a 12 h-12 h nyctohemeral cycle. Following the surgical operation at Day0, animals were accustomed for seven days to a basic semisynthetic diet (INRA, Jouy-en-Josas, France), supplemented with 2.5% groundnut oil and 2.5% rapeseed oil and humidified to 1 ml water per gram powder. At the end of this adaptation period, the rats were separated in four homogeneous batches according to weight parameters and were fed for 72 days 22 g per day of following diets: • Batch SH/10 pseudo-operated female rats fed control diet (basic diet supplemented with 2.5% groundnut oil and 2.5% rapeseed oil), • Batch OVXinf: 10 ovariectomized female rats fed control diet, • Batch OL: 10 ovariectomized female rats fed control diet supplemented with 0.015% oleuropein. • Batch HO: 10 ovariectomized female rats fed basic diet supplemented with 5% extra-virgin olive oil.
(§2) Oil storage was kept away from light. Feed was prepared once a week and stored at +4° C.
(§3) At D55, that is 3 weeks before the end of the experiment, an inflammation was induced in each batch, except in control batch (SH). […]

[2] = tested on: ovariectomized female rats, suffering from inflammation (OVX inf); assay: Body weight and uterine weight in ovariectomized female rats with talc-induced inflammation (senile osteoporosis model); conditions: OVX inf female Wistar rats
Experimental: as §1, §2, §3

[3] = tested on: ovariectomized female rats, suffering from inflammation (OVX inf); assay: Femur bone mineral density in ovariectomized female rats with talc-induced inflammation; conditions: OVX inf female Wistar rats
Experimental: as §1, §2
At D55, that is 3 weeks before the end of the experiment, an inflammation was induced in each batch, except in control batch (SH). Four talc subcutaneous injections (3.2 g magnesium silicate (Sigma) suspended in […] physiological saline) were administrated in 4 distinct sites of the animal back.
The day of sacrifice (D80), animals were anesthetized with a chloral intraperitoneal injection (Fluka/8% solution, 0.4 ml/100 g of live weight). Blood samples were collected at abdominal aorta for dosing orosomucoid (inflammation marker, in particular of the acute phase for humans and rats (Fournier and al. 2000), that is produced by lever and other extra-hepatic sites under the control of II1, TNFα and II6 cytokines).
Femurs were collected and removed from adjacent soft tissues, then kept in 80% ethanol for bone density determination.

[4] = diet with 0.015% oleuropein or 5% extra-virgin olive oil for 72 days, sacrifice D80, mean ± SEM
[5] = femur, oleuropein diet for 72 days

## C/C=C1/[C@H](O[C@@H]2O[C@H](CO)[C@@H](O)[C@H](O)[C@H]2O)OC=C(C(=O)OC)[C@H]1CC(=O)OCCc1ccc(O)c(O)c1 [oleuropein]
[1]
  spleen weight: 0.201±0.011 g spleen/100 g body weight
[2]; diet for 72 days, judged from uterine weight
  uterotrophic effect: free from any uterotrophic effect
[2]; [4]
  uterine weight: 0.034±0.001 g uterus/100 g body weight
[3]; [4]
  total bone mineral density (femur): 0.2258±0.0028 g/cm^2
[3]; [5]
  bone cortical substance density: increase
  bone trabecular substance density: increase
